Measurements published in patent US20230226064A1, “ORAL LIQUID FORMULATIONS OF RUXOLITINIB” (Novartis AG, priority 2020, published 2023).

Test: Solubility profile of ruxolitinib phosphate in buffer solutions at 37° C.
Assay type: physicochemical
Text: Development of stable and palatable oral solution formulation for ruxolitinib is challenging due to pH dependent solubility (see Table 2) of the drug substance with mainly oxidation degradation products at higher temperatures/moisture content and/or in presence of oxygen.

N#CC[C@H](C1CCCC1)n1cc(-c2ncnc3[nH]ccc23)cn1 [ruxolitinib phosphate]
solubility (aqueous buffer, Buffer solution pH 3.3): ≥ 520 µg/mL | solubility (aqueous buffer, Buffer solution pH 4.3): 350 µg/mL | solubility (aqueous buffer, Buffer solution pH 5.3): 290 µg/mL | solubility (aqueous buffer, Buffer solution pH 7.5): 150 µg/mL | solubility (aqueous buffer, Buffer solution pH 8.0): 170 µg/mL | solubility (simulated gastric fluid, Buffer solution pH 1.0): ≥ 540 µg/mL
